“Also recorded” adds a separate entry of the source.
Assays:
[1] = Plasma pharmacokinetics of minocycline, single ascending dose (SAD) phase, 1 hour intravenous infusion; design: species or system human (healthy adult subjects); conditions: human, in vivo; for half-life: mean, N=8
Method: (§1) This example describes outcomes among healthy adult subjects in a randomized, double-blind, placebo-controlled, single- and multiple ascending dose (SAD/MAD) study of 6 intravenous doses (cohorts) ranging from 100 mg to 600 mg of minocycline. […] Within each cohort, subjects received a single dose on Day 1, followed by a loading dose on Day 4, then 7 days of twice-daily dosing (Days 4-10), followed by a single dose on Day 11 as shown in Table 1. Within each cohort, subjects were randomly assigned to minocycline (n=8) or normal saline placebo (n=2). Serial blood and urine samples were collected for pharmacokinetic assessment. All infusions were administered over 1 hour. Plasma samples were obtained at 1 (end-of-infusion), 2, 4, 8, 12, 18, 24, 36, 48, and 72 hours after the start of dosing after single or multiple doses and assayed for minocycline content using a validated HPLC/MS method. Concentration of minocycline in healthy volunteers after a one hour IV infusion is shown in FIG. 1, while concentration of minocycline in healthy volunteers after a loading dose then twice daily dosing for seven days is shown in FIG. 2.

[2] = Plasma pharmacokinetics of minocycline, twice-daily ascending dose (MAD) phase, loading dose then BID dosing for 7 days; design: species or system human (healthy adult subjects); conditions: human, in vivo; for AUC(0-t): AUC0-t; for clearance: Cl (plasma clearance); for Vd: Vss (volume of distribution at steady state); for half-life: mean; for Cmax: iv
Method: as §1

[3] = Safety and tolerability (adverse events) in the SAD/MAD study of intravenous minocycline; format: in vivo, human (healthy adult subjects)
Method: This example describes outcomes among healthy adult subjects in a randomized, double-blind, placebo-controlled, single- and multiple ascending dose (SAD/MAD) study of 6 intravenous doses (cohorts) ranging from 100 mg to 600 mg of minocycline. Each cohort consisted of 10 subjects (8 active drug and 2 placebo). Within each cohort, subjects received a single dose on Day 1, followed by a loading dose on Day 4, then 7 days of twice-daily dosing (Days 4-10), followed by a single dose on Day 11 as shown in Table 1. Within each cohort, subjects were randomly assigned to minocycline (n=8) or normal saline placebo (n=2). Serial blood and urine samples were collected for pharmacokinetic assessment.
Safety was assessed throughout the study. Of the adverse events (AE) observed in more than 10% of subjects, the vast majority were assessed by the investigator as likely to be related to study drug (Table 5). A total of 21 subjects out of 57 discontinued the trial. Six of 10 subjects in cohort 4 discontinued during the MAD portion (400 mg BID) of the trial due to mild to moderate dizziness. Dosing was discontinued in the remaining 4 subjects in that cohort and cohorts 5 and 6 were limited to 300 mg BID for the MAD portion of the trial. Four subjects in cohort 6 (600 mg/300 mg) discontinued due to nausea.

[4] = Plasma pharmacokinetics of minocycline, single ascending dose (SAD) phase, 1 hour intravenous infusion; design: species or system human (healthy adult subjects); conditions: human, in vivo; single 600 mg IV dose, mean, N=9

## CN(C)c1ccc(O)c2c1C[C@H]1C[C@H]3[C@H](N(C)C)C(O)=C(C(N)=O)C(=O)[C@@]3(O)C(O)=C1C2=O [minocycline]
[1]; iv
  Dose proportionality of exposure: increased in a dose proportional fashion with exception of the 500 mg dose
[1]; iv, 100 mg
  AUC(0-inf): 9730 ng·h/mL
  clearance: 175 mL/min
[1]; iv, 200 mg
  AUC(0-inf): 25900 ng·h/mL
  clearance: 137 mL/min
[1]; iv, 300 mg
  AUC(0-inf): 39200 ng·h/mL
  clearance: 138 mL/min
[1]; iv, 400 mg
  AUC(0-inf): 63600 ng·h/mL
  clearance: 112 mL/min
[1]; iv, 500 mg
  AUC(0-inf): 53800 ng·h/mL
  clearance: 171 mL/min
[1]; iv, 600 mg
  AUC(0-inf): 83000 ng·h/mL
  clearance: 135 mL/min
[1]; single 100 mg IV dose
  half-life: 11.1 h
[1]; single 200 mg IV dose
  half-life: 13.7 h
[1]; single 300 mg IV dose
  half-life: 16.6 h
[1]; single 400 mg IV dose
  half-life: 17.6 h
[1]; single 500 mg IV dose
  half-life: 14.4 h
[2]; 100 mg
  AUC(0-t): 27500 ng·h/mL
  clearance: 58.2 mL/min
  Vd: 72 L
  Cmax: 1710 ng/mL
[2]; 100 mg, single dose 100 mg, BID dosing 100 mg, N=6
  half-life: 15.9 h
[2]; 200 mg
  AUC(0-t): 80700 ng·h/mL
  clearance: 41.3 mL/min
  Vd: 58.4 L
  Cmax: 4590 ng/mL
[2]; 200 mg, single dose 200 mg, BID dosing 200 mg, N=6
  half-life: 18.2 h
[2]; 300 mg
  AUC(0-t): 174000 ng·h/mL
  clearance: 32 mL/min
  Vd: 47 L
  Cmax: 8910 ng/mL
[2]; 300 mg, single dose 300 mg, BID dosing 300 mg, N=7
  half-life: 19.8 h
[2]; 300 mg, single dose 500 mg, BID dosing 300 mg, N=7
  half-life: 18.1 h
[2]; 300 mg, single dose 600 mg, BID dosing 300 mg, N=4
  half-life: 20.2 h
[2]; 300 mg, single dose 300, 500, or 600 mg (pooled), BID dosing 300 mg, N=18
  half-life: 19.2 h
[2]
  clearance: 44 mL/min
  Vd: 58.1 L
[3]; administered twice daily, IV
  Maximum tolerated multi-dose: 300 mg
[3]; cohort 6 (600 mg/300 mg)
  Subjects discontinued due to nausea in cohort 6: Four
[3]; human, in vivo
  Subjects reporting study drug related adverse events, %: 79.9%
  Subjects who discontinued the trial, total: 21
  Subjects with dizziness, %: 59.4%
  Subjects with dizziness, number: 41
  Subjects with moderate nausea and/or dizziness, number: 9
  Subjects with nausea, %: 50.7%
  Subjects with nausea, number: 35
[3]; human, in vivo, 7 days
  Subjects discontinued from study drug in the 400 mg cohort (cohort 4): 6
[3]; single IV doses up to 600 mg
  Tolerability of single intravenous doses: tolerated reasonably well
[3]; whole SAD/MAD study, 100 mg to 600 mg IV
  Serious adverse events: No serious adverse events occurred; also recorded: No serious adverse events (SAEs) were reported
[3]; whole study
  Most common adverse effects: mild nausea and dizziness
[4]
  half-life: 17.3 h

— patent publication US20210052608A1, “METHODS OF TREATING BACTERIAL INFECTIONS WITH MINOCYCLINE” (Melinta Therapeutics, Inc., priority 2018, published 2021)
